Structures can show the parent of a compound that is named as a salt.

In patent US10828301B2, “2,4-pyrimidinediamine compounds and their uses” (Rigel Pharmaceuticals, Inc, priority 2002, dated 2020) one finds IC50 data, which are given here for 33 compounds.

Assay [1] deals with cultured human mast cells (CHMC). As to the kind of experiment: CHMC low cell density IgE activation: tryptase and LTC4 assays. It counts as cell-based. On the procedure: Pellet CHMC cells (980 rpm, 10 min) and resuspend in pre-warmed MT. Add 65 ul of cells to each 96-well plate. Depending on the degranulation activity for each particular CHMC donor, load 1000-1500 cells/well. Mix four times followed by a 1 hr incubation at 37° C. […] Stimulate cells by adding 25 ul of 6× anti-IgE solution to the appropriate plates. Add 25 ul MT to un-stimulated control wells. Mix twice following addition of the anti-IgE. Incubate at 37° C. for 30 minutes. […] Spin plates at 1000 rpm for 10 min to pellet cells. Transfer 25 ul of supernatant to a 96-well black bottom plate and add 100 ul of freshly diluted tryptase substrate solution to each well. Incubate plates at room temperature for 30 min.
Leukotriene C4 (LTC4) is also quantified using an ELISA kit on appropriately diluted supernatant samples (determined empirically for each donor cell population so that the sample measurement falls within the standard curve) following the supplier's instructions.

Assay [2] shares this test system. Nature of the assay: CHMC low cell density ionomycin activation: tryptase assay. It counts as cell-based. The settings on record: Low Density CHMC, ionomycin activation, tryptase readout, read-out: CHMC Ionomycin Tryptase.
Where [3] appears, read: Homo sapiens, Mast cell, Low Density CHMC, anti-IgE activation, tryptase readout, read-out: CHMC anti-IgE Tryptase.
Where [4] appears, read: Homo sapiens, Mast cell, read-out: CHMC anti-IgE Tryptase.

`CCNC(=O)Nc1ccc(Nc2ncc(F)c(Nc3ccc(NC(=O)NCC)cc3)n2)cc1` [Compound R945040, N2,N4-Bis[4-(ethylaminocarbonylamino)phenyl]-5-fluoro-2,4-pyrimidinediamine]: the IC50 in assay [1] (setting [3]) was > 10 µM; in assay [2] (Homo sapiens, Mast cell), > 10 µM. Consider `COC(=O)c1ccc(-c2cnc(Nc3ccc4c(c3)OCCO4)nc2Nc2ccc3c(c2)OCCO3)cc1` [Compound R925813, N2,N4-Bis(3,4-ethylenedioxyphenyl)-5-(4-methoxycarbonylphenyl)-2,4-pyrimidinediamine], for which the IC50 is > 10 µM in assay [1] (setting [3]) and > 10 µM in assay [2] (Homo sapiens, Mast cell). On to `COc1ccc(Nc2nc(Nc3cccc(C(C)(C)C)c3)ncc2F)cc1OC` [Compound R940260, N2-(3-tert-Butylphenyl)-N4-(3,4-dimethoxyphenyl)-5-fluoro-2,4-pyrimidinediamine], for which the IC50 was 1.13 µM in assay [1] (setting [3]) and > 10 µM in assay [2] (Homo sapiens, Mast cell). Turning to `CCOC(=O)C=Nc1cccc(Nc2nc(N(CC(=O)OCC)c3cccc(N=CC(=O)OCC)c3)ncc2F)c1` [Compound R950183, N2,N4-Bis(3-ethoxycarbonylmethyleneaminophenyl)-N2-(ethoxycarbonylmethyl)-5-fluoro-2,4-pyrimidinediamine], the IC50 in assay [1] (setting [3]) is 4.8 µM; in assay [2] (Homo sapiens, Mast cell) it was > 10 µM.

As for `Cc1ccc(F)c(Nc2ncc(F)c(Nc3ccc4c(c3)OCCO4)n2)c1` [Compound R926897, N4-(3,4-Ethylenedioxyphenyl)-5-fluoro-N2-(2-fluoro-5-methylphenyl)-2,4-pyrimidinediamine], the IC50 in assay [1] (setting [3]) was 1.73 µM; in assay [2] (Homo sapiens, Mast cell), > 10 µM. Turning to `N#Cc1ccc(Nc2ncc(F)c(Nc3ccc(C#N)cc3)n2)cc1` [Compound R945057, N2,N4-Bis(4-cyanophenyl)-5-fluoro-2,4-pyrimidinediamine], the IC50 in assay [1] (setting [3]) is 10 µM; in assay [2] (Homo sapiens, Mast cell) it was > 10 µM. For `Fc1cnc(Nc2ccc(SC(F)(F)F)cc2)nc1Nc1ccc2c(c1)OCCO2` [Compound R926899, N4-(3,4-Ethylenedioxyphenyl)-5-fluoro-N2-(4-trifluoromethylthiophenyl)-2,4-pyrimidinediamine] the same measures were 1.1 µM and > 10 µM.

Turning to `Oc1cccc(Nc2nc(NCc3csc4ccccc34)ncc2F)c1` [Compound R945164, N2-(Benzothiophen-3-ylmethyl)-5-fluoro-N4-(3-hydroxyphenyl)-2,4-pyrimidinediamine], the IC50 in assay [1] (setting [3]) is 10 µM; in assay [2] (Homo sapiens, Mast cell), > 10 µM. For `c1ccc(-c2cnc(Nc3ccc4c(c3)OCCO4)nc2Nc2ccc3c(c2)OCCO3)cc1` [Compound R925784, N2,N4-Bis(3,4-ethylenedioxyphenyl)-5-phenyl-2,4-pyrimidinediamine], the IC50 in assay [1] (setting [3]) was 3.2 µM; in assay [2] (Homo sapiens, Mast cell), > 10 µM.

For `CCOc1ccc(Nc2ncc(F)c(Nc3ccc(OCC)cc3)n2)cc1` [Compound R070790, N2,N4-bis(4-ethoxyphenyl)-5-fluoro-2,4-pyrimidinediamine], in assay [2] (Homo sapiens, Mast cell), the IC50 was > 10 µM.

For the compound `CNC(=O)COc1cccc(Nc2ncc(F)c(Nc3ccc4c(c3)C(=O)CCC4)n2)c1` [Compound R926947, 5-Fluoro-N4-(1,2,3,4-tetrahydro-1-oxonaphthalen-7-yl)-N2-[3-[(N-methylamino)carbonylmethyleneoxy]phenyl]-2,4-pyrimidinediamine], in assay [2], the IC50 is > 10 µM. For the compound `OCCOc1ccc(Nc2ncc(F)c(Nc3cccc(O)c3)n2)cc1` [Compound R935155, 5-Fluoro-N2-[4-(2-hydroxyethoxy)phenyl]-N4-(3-hydroxyphenyl)-2,4-pyrimidinediamine], in assay [2] (Homo sapiens, Mast cell), the IC50 was > 10 µM.

With `Nc1cccc(Nc2ccnc(Nc3cccc(N)c3)n2)c1` [Compound R950109, N2,N4-Bis(3-aminophenyl)-2,4-pyrimidinediamine], the IC50 in assay [1] (setting [3]) turned out to be 7.95 µM. With `CNC(=O)COc1cccc(Nc2ncc(F)c(Nc3cc(C)ccn3)n2)c1` [Compound R927016, 5-Fluoro-N2-[3-(N-methylamino)carbonylmethyleneoxyphenyl]-N4-(4-methylpyridin-2-yl)-2,4-pyrimidinediamine], the IC50 in assay [1] (Low Density CHMC, anti-IgE activation, tryptase readout, read-out: CHMC anti-IgE Tryptase) was determined as 1.41 µM. For `Nc1ccc(Nc2ncc(F)c(Nc3ccc(N)cc3)n2)cc1` [Compound R950121, N2,N4-Bis(4-aminophenyl)-5-fluoro-2,4-pyrimidinediamine Hydrogen Chloride Salt], the IC50 in assay [1] (setting [3]) stood at 4.25 µM. Turning to `Cc1onc(-c2ccccc2)c1Nc1ncc(F)c(Nc2ccc3c(c2)OCCO3)n1` [Compound R926743, N4-(3,4-Ethylenedioxyphenyl)-5-fluoro-N2-(3-phenyl-5-methylisoxazol-4-yl)-2,4-pyrimidinediamine], the IC50 in assay [1] (setting [3]) was > 10 µM. As for `CCOC1CCCc2ccc(Nc3nc(Nc4cccc(O)c4)ncc3F)cc21` (stereo not drawn) [Compound R926942, N4-(1-Ethoxy-1,2,3,4-tetrahydronaphthalen-7-yl)-5-fluoro-N2-(3-hydroxyphenyl)-2,4-pyrimidinediamine], in assay [1] (setting [3]), the IC50 worked out at 4.81 µM.

As to `COc1cc(Nc2ncc(F)c(Nc3ccc(C(=O)O)c(OC)c3)n2)ccc1C(=O)O` [Compound R945068, N2,N4-Bis(4-carboxy-3-methoxyphenyl)-5-fluoro-2,4-pyrimidinediamine], the IC50 in assay [1] (setting [3]) was > 10 µM. With `COC(=O)c1cc2cc(Nc3ncc(F)c(Nc4ccc(OC)c(Cl)c4)n3)ccc2o1` [Compound R926950, N4-(3-Chloro-4-methoxyphenyl)-5-fluoro-N2-[2-(methoxycarbonyl)benzofuran-5-yl]-2,4-pyrimidinediamine], the IC50 in assay [2] (Homo sapiens, Mast cell) is > 10 µM. With `CCOC(=O)C1CCN(C(=O)c2cccc(Nc3ncc(F)c(Nc4ccc5cc[nH]c5c4)n3)c2)CC1` [Compound R926935, N2-[3-[[4-(Ethoxycarbonyl)piperidino]carbonyl]phenyl]-5-fluoro-N4-[(1H)-indol-6-yl]-2,4-pyrimidinediamine], the IC50 in assay [1] (setting [3]) worked out at 4.44 µM. `CNC(=O)CNc1cccc(Nc2ncc(F)c(Nc3cccc(O)c3)n2)c1` [Compound R950218]: the IC50 in assay [2] was > 10 µM. Regarding `Cc1ccc(N)cc1Nc1ncc(F)c(Nc2cc(N)ccc2C)n1` [Compound R950157, N2,N4-Bis(5-amino-2-methylphenyl)-5-fluoro-2,4-pyrimidinediamine], the IC50 in assay [1] (setting [3]) is > 10 µM. With `CC(=O)c1cccc(Nc2ncc(F)c(Nc3cccc(C(C)=O)c3)n2)c1` [Compound R950376, N2,N4-Bis(3-methylcarbonylphenyl)-5-fluoro-2,4-pyrimidinediamine], the IC50 in assay [1] (setting [3]) came to 2.54 µM. For `COC(=O)c1cc(Nc2ncc(F)c(Nc3ccc(OC(F)(F)F)c(C(=O)OC)c3)n2)ccc1OC(F)(F)F` [Compound R950391, N2,N4-Bis(3-methoxycarbonyl-4-trifluoromethoxyphenyl)-5-fluoro-2,4-pyrimidinediamine], in assay [2] (Homo sapiens, Mast cell), the IC50 was > 10 µM. For `CNC(=O)Cn1ncc2cc(Nc3ncc(F)c(Nc4ccc(OC(C)C)cc4)n3)ccc21` [Compound R935239, 5-Fluoro-N4-(4-isopropoxyphenyl)-N2-[1-(N-methylaminocarbonyl)methyl-indazoline-5-yl]-2,4-pyrimidinediamine], the IC50 in assay [2] was > 10 µM.

As to `Oc1cccc(Nc2ncc(F)c(Nc3ccc(Cl)nc3)n2)c1` [Compound R927018, N4-(6-Chloropyridin-3-yl)-5-fluoro-N2-(3-hydroxyphenyl)-2,4-pyrimidinediamine], the IC50 in assay [1] (setting [3]) turned out to be 1.45 µM. For the compound `O=[N+]([O-])c1ccc(F)c(Nc2ncc(F)c(Nc3cc([N+](=O)[O-])ccc3F)n2)c1` [Compound R950147, N2,N4-Bis(2-fluoro-5-nitrophenyl)-5-fluoro-2,4-pyrimidinediamine], the IC50 in assay [1] (setting [4]) was > 10 µM.

For `COC(=O)c1cc(Nc2ncc(F)c(Nc3ccc(OC)c(C(=O)OC)c3)n2)ccc1OC` [Compound R945066, N2,N4-Bis(4-methoxy-3-methoxycarbonylphenyl)-5-fluoro-2,4-pyrimidinediamine], the IC50 in assay [1] (setting [3]) turned out to be 5.2 µM. With `COc1ccc(CNc2ncc(F)c(Nc3ccc4c(c3)OCCO4)n2)cc1` [Compound R926230, N4-(3,4-Ethylenedioxyphenyl)-5-fluoro-N2-(4-methoxybenzyl)-2,4-pyrimidinediamine], the IC50 in assay [1] (Homo sapiens, Mast cell, Low Density CHMC, anti-IgE activation, hexosaminidase readout, read-out: CHMC anti-IgE Hexos.) is > 10 µM.

Consider `COc1ccc(Nc2nc(Nc3cccc(O)c3)ncc2F)c(OC)n1` [Compound R926887, N4-(2,6-Dimethoxypyridin-3-yl)-5-fluoro-N2-(3-hydroxyphenyl)-2,4-pyrimidinediamine], for which, in assay [1] (setting [3]), the IC50 worked out at 1.75 µM. Still for that read-out and setting: next, `COC(=O)C1Cc2cc(Nc3ncc(F)c(Nc4ccc(OC)nc4OC)n3)ccc2O1` (racemic) [Compound R927032, (±)-N2-(2,3-Dihydro-2-methoxycarbonylbenzofuran-5-yl)-N4-(2,6-dimethoxypyridin-3-yl)-5-fluoro-2,4-pyrimidinediamine]: 0.899 µM.

In the case of `Cc1ccc([N+](=O)[O-])cc1Nc1ncc(F)c(Nc2cc([N+](=O)[O-])ccc2C)n1` [Compound R950146, N2,N4-Bis(2-methyl-5-nitrophenyl)-5-fluoro-2,4-pyrimidinediamine], in assay [1] (setting [4]), the IC50 was > 10 µM.

As for `COc1ccc([N+](=O)[O-])cc1Nc1ncc(F)c(Nc2cc([N+](=O)[O-])ccc2OC)n1` [Compound R950151, N2,N4-Bis(2-methoxy-5-nitrophenyl)-5-fluoro-2,4-pyrimidinediamine], the IC50 in assay [1] (setting [4]) was > 10 µM.
